Results from patent US20060277615A1, “Method of determining xenograft responses” (priority 2003, published 2006).

Experiments:
[1] = test system: PC3/SFN cells xenografted tumours; assay: Urine hCG in nude mice bearing PC3/SFN-hCG(myc)-Amp reporter xenografts; type: in vivo, congenitally athymic nude mice; conditions: for increase of normalised urine hCG levels: 48 hours post-dosing vs pre-dose, normalised against urine creatinine, relative to tumour volume; for hCG expression in individual mice compared to vehicle controls: single dose ip (etoposide 40 mg/kg, camptothecin 30 mg/kg), urine 48 hours after drug administration
Method: PC3 cells stably transfected with the SFN-hCG(myc)-Amp reporter construct were allowed to grow as solid subcutaneous tumours in congenitally athymic nude mice. The mice were then treated with anticancer drugs that act by inducing G2/M arrest. The drugs chosen for this exemplification were etoposide and camptothecin [12]. […] Wild-type and engineered PC3 tumour cell lines were cultured in RPMI medium supplemented with 10%-15% heat inactivated foetal calf serum, 2 mM L-glutamine, penicillin (50 IU/ml), streptomycin (50 μg/ml). Culture medium for PC3/SFN cells also contained G418 (200 μg/ml). Cultures were incubated in a humidified incubator at 37° C., 5% CO2. Cells were harvested, pooled, centrifuged, and re-suspended in cold medium. This was mixed with an equal volume of cold Matrigel, so that the tumour cell injection solution was a 50:50 mixture of tumour cells/medium and Matrigel for each cell line. Wild type or transfected PC3 cells were injected at 2.5×10^6 per animal. All cell lines were injected in a volume of 100 μl in the right hand flank only. The study consisted of 4 groups in total, each containing 4 animals. One group of mice was implanted with wild type PC3 cells and the remaining 3 groups with engineered cells. Tumour growth was measured twice-weekly following cell implantation until tumours reached 2-5 mm in diameter. Tumour volume (V) was calculated using the formula: V= 4/3π((d1+d2)/4)^3, where d=mean diameter (n=2) Treatment began 5 weeks after tumour implantation. Wild type PC3-xenografted mice remained untreated; all other mice were administered vehicle only (DMSO/saline) or test substances. Single administrations of Camptothecin (30 mg/kg) and Etoposide (40 mg/kg) were administered ip at 10 ml/kg. Additionally, Etoposide (25 mg/kg) was administered to a single group of mice over three consecutive days (ip; 10 ml/kg). Urine samples were harvested before, during and after drug administration. Animals were sacrificed 48 hours after treatment. Urine was analysed for hCG and values normalised against urine creatinine levels.

[2] = test system: PC3 cells stably engineered to contain the SFN-hCG(myc)-Amp construct; assay: hCG induction in PC3 cells stably engineered to contain the SFN-hCG(myc)-Amp construct (ELISA of medium); type: cell-based, human; conditions: stable PC3 cell line, 24 hours
Method: To generate a stable cell line, transfection was carried out as above. After 24 hours the cells were trypsinised and transferred to 10 cm tissue culture dishes (one well of a six well plate per 10 cm dish). The cells were allowed to grow on these dishes for 7 days prior to selection. After this time, G418 (20 ng/ml in cell culture medium) was added and the dishes maintained until colonies became visible (approximately one week). Individual colonies were picked using cloning discs soaked in typsin and transferred to individual wells of a 24 well plate. The colonies were then expanded to 6 well plates then T25 flasks and grown up until sufficient cells were present for use in in vitro inductions and xenograft experiments. Following the generation of a stable cell line containing the SFN-hCG(myc)-Amp reporter construct, the cells were further tested using etoposide. The cells were plated out on 6 well plates and allowed to adhere overnight. The next day they were treated with etoposide (50 or 400 μM) or vehicle (dimethyl sulphoxide). After 24 hours in the presence or absence of etoposide, samples of the medium were taken and assayed for hCG by enzyme-linked immunosorbent assay as above.

[3] = test system: PC3 cells containing the SFN-hCG(myc)-Amp reporter construct; assay: hCG induction in PC3 cells transiently transfected with SFN-hCG(myc)-Amp reporter construct (ELISA of medium); type: cell-based, human; conditions: 50 μM etoposide, 24 hours, vs untreated
Method: The SFN-hCG(myc)-Amp reporter construct was transfected into PC3 cells on 6-well tissue culture plates using FuGene reagent (Roche, Lewes, East Sussex). Construct DNA (equivalent to 1 μg/well) was added to FuGene reagent (3 μl/well) and made up to 100 μl/well with serum free medium. The medium in which the cells were growing was aspirated off and replaced with 100 μl of the above mixture per well. For transient transfections, the cells were used for experiments 24 hours after the addition of the construct.

CC[C@@]1(O)C(=O)OCc2c1cc1n(c2=O)Cc2cc3ccccc3nc2-1 [camptothecin]
increase of normalised urine hCG levels ([1]; single dose 30 mg/kg ip): 5.29 fold | hCG expression in individual mice compared to vehicle controls [1]: significantly increased

COc1cc([C@@H]2c3cc4c(cc3[C@@H](O[C@@H]3O[C@@H]5CO[C@@H](C)O[C@H]5[C@H](O)[C@H]3O)[C@H]3COC(=O)[C@H]23)OCO4)cc(OC)c1O [etoposide]
amount of hCG secreted at higher concentration ([2]; 400 μM vs 50 μM etoposide): increased | amount of hCG secreted into the surrounding medium ([2]; etoposide 50 or 400 μM, vs vehicle (dimethyl sulphoxide)): increased | hCG levels at 24 and 48 hours following a third dose ([1]; 3 consecutive doses of 25 mg/kg ip, 24 and 48 hours after third dose): dropped to control levels | normalised hCG expression following the first dose ([1]; 3 consecutive doses of 25 mg/kg ip, after first dose): sharp increase | normalised hCG expression following a second dose ([1]; 3 consecutive doses of 25 mg/kg ip, after second dose): remained at this level | anti-tumour effect against the PC3/SFN cells ([1]; 3 consecutive doses of 25 mg/kg ip, inferred from the drop in urine hCG): exhibited an anti-tumour effect | increase of normalised urine hCG levels ([1]; single dose 40 mg/kg ip): 4.29 fold | hCG expression in individual mice compared to vehicle controls [1]: significantly increased | amount of hCG secreted into the surrounding medium [3]: increased
